Laboratory results: US5981497A, “Utilization of sophorolipids as therapeutically active substances or cosmetic products, in particular for the treatment of the skin” (Institut Francais du Petrole, priority 1995, dated 1999)

Assays:
[1] = system: keratinocyte culture (detachment of corneocytes); assay: Desquamating test, detachment of corneocytes in vitro; format: cell-based
Description: Variation coefficient CV is obtained as follows: [formula]
Actually, the therapeutic applications incidentally involve cosmetic applications.

in vitro = details: keratinocyte culture
Description: A keratinocyte culture that was placed under conditions that promote the differentiation of cells was selected as a cellular model for the study. The actions of sophorolipids in acid form A, sophorolipids in lactone form B, and lactic acid on the detachment of corneocytes of the selected cellular model were tested in vitro in parallel. In each experiment, the mean difference T60-T0 (corneocytes/ml), as well as the proportion of detached corneocytes, expressed in percentage relative to the negative test (%/TN), were determined.
Cellular viability, measured with the Neutral Red test, is expressed relative to the negative test (%).

[2] = system: macrophages (Interleukin-1 release); assay: IL-1 released by macrophages (Elisa sandwich test on culture supernatant); format: cell-based; details: 25 μg/ml
Description: It is known, however, that several factors such as cytokines and growth factors play important roles in the process of wound healing. These factors include the epidermal growth factor (EGF), the fibroblastic growth factor (FGF), the platelet-derived growth factor (PDGF), and the beta transforming growth factor (beta-TGF). In addition to these factors, cytokines such as interleukin-l (IL-1), the tumor necrosis factor (TNF), and interleukin-6 (IL-6) also play important roles in the process of wound healing. These factors act by different methods, in combination with other materials, to induce proliferation of dermal and epidermal elements such as fibroblasts. […] Actually, IL-1 affects the differentiation, growth, and activity of many cellular types in the organism. Within the immune system, IL-1 acts as a second signal that is necessary to activate the IL-2 circuit by the activated T lymphocytes. It also potentiates the action of other cytokines. It contributes to the differentiation of B lymphocytes and to their production of immunoglobulins. It modifies vascular permeability by the release of mediators by the endothelial cells and induces the appearance at their surface of a factor that has a procoagulating activity. Owing to its proliferative effect on the fibroblasts, it intervenes in the repair phase.
To show the effect of activating macrophages by sophorolipids, an Elisa sandwich test was carried out on the supernatant of a culture medium that contained macrophages. […] A negative test was also used.

| Compound | T60-T0 mean difference ([1]; 10^-3M, p less than 0.001) [corneocytes/ml] | activity at 1000 µM ([1]; Keratinocyte, 10^-3M, read-out: %/TN, proportion of detached corneocytes relative to the negative test) [%] | EC (2-fold corneocyte release) ([1]; Keratinocyte, read-out: T200 (concentration which causes a release of corneocytes twice that observed with the negative test)) [µM] | viability at 1000 µM (in vitro) [%] | Concentrations IL-1 released by macrophages [2] [pg/mL] |
| --- | --- | --- | --- | --- | --- |
| CC(O)C(=O)O (centres unmarked) [Lactic acid, lactic acid, reference compound] | 2500 | 214 | ~1000 | 99.5 |  |
| Lipopolysaccharides [reference compound] |  |  |  |  | 421.61 |
